Source: US20260115185A1, “QUINOLINE DERIVATIVES WHICH ACT AS KAPPA-OPIOID RECEPTOR ANTAGONISTS” (The Scripps Research Institute, priority 2023, published 2026)

Experiments:
[1] = molecular target: T1, kappa opioid receptor (KOR) (Homo sapiens, UniProt P41145); experiment: OPRKappa 1 Tango B-Arrestin Assay, antagonist mode (Tango OPRK1-bla U2OS cells, U50488 EC80 challenge); format: cell-based; conditions: for Selectivity (MOR/KOR): Kappa selectivity, MOR IC50 / KOR IC50; for IC50: antagonist mode, Tango OPRK1-bla U2OS cells, 6 nM U50488 challenge
T1 construct: host or cells: U2OS (Tango OPRK1-bla U2OS)
Summary of the method: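 Tango OPRK1-bla U2OS cells, β-arrestin recruitment read as β-lactamase FRET (CCF4-AM, 460/590 nm emission). Compounds, 10-point 1:3 series from nominal 10 µM in quadruplicate, preincubated 30 min at 37 °C, then challenged with U50488 at 6 nM final (EC80) for 4 h; percent inhibition from median ratio.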

mu opioid receptor (MOR) = molecular target: T2, mu opioid receptor (MOR) (Homo sapiens, UniProt P35372); experiment: OPRMu1 Discover X β-arrestin Assay, antagonist mode (U2OS cells, DAMGO EC80 challenge); format: cell-based
T2 construct: host or cells: U2OS (Discover X OPRMu1-U2OS, PathHunter)
Summary of the method: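 PathHunter U2OS cells with β-gal fragment-complementation readout for β-arrestin recruitment to OPRMu1. Cells were preincubated with compound (10-point, 1:3 series from nominal 10 micromolar) for 30 min at 37 °C, then challenged with 303 nM DAMGO (EC80) for 3 h. Luminescence gave percent inhibition.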

T1 sequence (P41145 whole entry): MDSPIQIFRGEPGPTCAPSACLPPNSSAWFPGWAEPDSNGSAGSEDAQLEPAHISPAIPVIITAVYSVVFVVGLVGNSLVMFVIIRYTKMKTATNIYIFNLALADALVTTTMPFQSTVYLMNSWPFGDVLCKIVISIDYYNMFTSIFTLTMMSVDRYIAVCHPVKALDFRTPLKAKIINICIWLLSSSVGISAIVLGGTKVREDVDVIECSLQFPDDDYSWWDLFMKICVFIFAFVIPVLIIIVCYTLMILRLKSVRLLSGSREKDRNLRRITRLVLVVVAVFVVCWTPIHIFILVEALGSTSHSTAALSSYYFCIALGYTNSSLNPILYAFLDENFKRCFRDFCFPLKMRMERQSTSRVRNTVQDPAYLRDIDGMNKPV
T2 sequence (P35372 whole entry): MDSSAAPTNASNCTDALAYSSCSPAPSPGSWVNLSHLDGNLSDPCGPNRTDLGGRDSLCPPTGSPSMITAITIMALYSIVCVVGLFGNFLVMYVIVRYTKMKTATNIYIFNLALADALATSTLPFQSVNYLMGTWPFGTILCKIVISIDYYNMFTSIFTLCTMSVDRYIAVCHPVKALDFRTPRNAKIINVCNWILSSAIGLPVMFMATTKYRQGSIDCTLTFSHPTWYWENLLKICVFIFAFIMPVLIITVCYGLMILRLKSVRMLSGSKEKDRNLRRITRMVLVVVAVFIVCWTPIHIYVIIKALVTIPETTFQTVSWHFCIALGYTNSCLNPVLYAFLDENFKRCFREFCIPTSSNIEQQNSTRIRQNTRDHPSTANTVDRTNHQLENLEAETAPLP

Structure (SMILES) | Selectivity (MOR/KOR) [1] | IC50 [1] [nM] | IC50 (mu opioid receptor (MOR)) [nM]
CCc1cc(F)c2nc(N3CCC(N[C@H]4CCCC(F)(F)C4)CC3)c(-c3ccn(C)n3)c(C)c2c1 [Compound 73, (S)—N-(3,3-difluorocyclohexyl)-1-(6-ethyl-8-fluoro-4-methyl-3-(1-methyl-1H-pyrazol-3-yl)quinolin-2-yl)piperidin-4-amine] | ++ (between 10- and 100-fold selectivity) | 1 to 10 | 100 to 1000
CCc1cc(F)c2nc(N3CC[C@H](N[C@@H]4CCOC4)[C@@H](F)C3)c(-c3ccn(C)n3)c(C)c2c1 [Compound 195, (3S,4S)-1-(6-ethyl-8-fluoro-4-methyl-3-(1-methyl-1H-pyrazol-3-yl)quinolin-2-yl)-3-fluoro-N—((R)-tetrahydrofuran-3-yl)piperidin-4-amine] | ++++ (more than 1000-fold selectivity over MOR) | 1 to 10 | > 1000
CCc1cc(F)c2nc(N3CCN([C@@H]4CCOC4)C[C@H]3C)c(-c3nc(C)no3)c(C)c2c1 [Compound 31] | ++ (between 10- and 100-fold selectivity) | ≥ 100 | > 1000
CCc1cc(F)c2nc(N3CCC(N[C@H]4CCCC(F)(F)C4)CC3)c(-c3cc(C)n(C)n3)c(C)c2c1 [Compound 67] | ++ (between 10- and 100-fold selectivity) | 1 to 10 | 10 to 100
CCc1cc(F)c2nc(N3CCN(C(=O)[C@H](C)N(CC)CC)C[C@H]3C)c(-c3nc(C)no3)c(C)c2c1 [Compound 158] | ++++ (more than 1000-fold selectivity over MOR) | 1 to 10 | > 1000
CCc1cc(F)c2nc(N3CC[C@H](N[C@@H]4CCCOC4)C[C@@H]3C)c(-c3ccn(C)n3)c(C)c2c1 [Compound 121] | +++ (between 100- to 1000-fold selective) | 10 to 100 | > 1000
CCc1cc(F)c2nc(N3CCN(C(=O)[C@@H](C(C)C)N4CCCC4)C[C@H]3C)c(-c3nc(C)no3)c(C)c2c1 [Compound 148] | +++ (between 100- to 1000-fold selective) | 1 to 10 | > 1000
CCc1cc(F)c2nc(N3CCN(C(=O)[C@H](CO)N(C)C)C[C@H]3C)c(-c3cc(C)no3)c(C)c2c1 [Compound 168] | +++ (between 100- to 1000-fold selective) | 1 to 10 | > 1000
CCc1cc(-c2ccnn2C)c2nc(N3CCNC4CC43)c(-c3ccn(C)n3)c(C)c2c1 (stereo not drawn) [Compound 24, 2-(2,5-diazabicyclo[4.1.0]heptan-2-yl)-6-ethyl-4-methyl-3-(1-methyl-1H-pyrazol-3-yl)-8-(1-methyl-1H-pyrazol-5-yl)quinoline] | + (less than 10-fold selectivity) | ≥ 100 | > 1000
CCc1cc(F)c2nc(N3CCC(N[C@H]4CCOC[C@@H]4F)CC3)c(-c3cc(C)n(C)n3)c(C)c2c1 [Compound 3, 1-(3-(1,5-dimethyl-1H-pyrazol-3-yl)-6-ethyl-8-fluoro-4-methylquinolin-2-yl)-N-((3R,4S)-3-fluorotetrahydro-2H-pyran-4-yl)piperidin-4-amine] | +++ (between 100- to 1000-fold selective) | 1 to 10 | 100 to 1000
CCc1cc(F)c2nc(N3CCN(C(=O)[C@H]4CCCN4C)C[C@H]3C)c(-c3nc(C)no3)c(C)c2c1 [Compound 183] | ++++ (more than 1000-fold selectivity over MOR) | 1 to 10 | > 1000
CCc1cc(F)c2nc(N3CCN(C[C@H]4CCOC4)C[C@H]3C)c(-c3nc(C)no3)c(C)c2c1 [Compound 202] | ++++ (more than 1000-fold selectivity over MOR) | 1 to 10 | > 1000
CCc1cc(F)c2nc(N3CCN(C(=O)[C@H](C)N4CC[C@@H](O)C4)C[C@H]3C)c(-c3nc(C)no3)c(C)c2c1 [Compound 150] | +++ (between 100- to 1000-fold selective) | ≥ 100 | > 1000
CCc1cc(F)c2nc(N3CCN(/C(=N/C#N)NC[C@H](Cc4ccc(O)cc4)N(C)C)C[C@H]3C)c(-c3nc(C)no3)c(C)c2c1 [Compound 48] | + (less than 10-fold selectivity) | 10 to 100 | 100 to 1000
CCc1cc(F)c2nc(N3CCN(C(=O)[C@@H]4COCCN4C)C[C@H]3C)c(-c3nc(C)no3)c(C)c2c1 [Compound 185] | +++ (between 100- to 1000-fold selective) | 10 to 100 | > 1000
CCc1cc(F)c2nc(N3CCN(C4CCOCC4)C[C@@H]3C)c(-c3nc(C)no3)c(C)c2c1 [Compound 27, (S)-5-(6-ethyl-8-fluoro-4-methyl-2-(2-methyl-4-(tetrahydro-2H-pyran-4-yl)piperazin-1-yl)quinolin-3-yl)-3-methyl-1,2,4-oxadiazole] | ++ (between 10- and 100-fold selectivity) | ≥ 100 | > 1000

Structure (SMILES) | Selectivity (MOR/KOR) [1] | IC50 [1] [nM] | IC50 (mu opioid receptor (MOR)) [nM]
CCc1cc(F)c2nc(N3CCN(C(=O)[C@@H]4CCCN4C)C[C@H]3C)c(-c3cc(C)no3)c(C)c2c1 [Compound 165] | +++ (between 100- to 1000-fold selective) | 10 to 100 | > 1000
CCc1cc(F)c2nc(N3CCN(/C(=N\C#N)NC4CCOCC4)C[C@H]3C)c(-c3ccn(C)n3)c(C)c2c1 [Compound 11, (R,E)-N′-cyano-4-(6-ethyl-8-fluoro-4-methyl-3-(1-methyl-1H-pyrazol-3-yl)quinolin-2-yl)-3-methyl-N-(tetrahydro-2H-pyran-4-yl)piperazine-1-carboximidamide] | ++ (between 10- and 100-fold selectivity) | 10 to 100 | 1 to 10
CCc1cc(-c2ccn(C)n2)c2nc(N3CCC(N[C@H]4CCOC4)CC3)c(-c3ccn(C)n3)c(C)c2c1 [Compound 99] | ++++ (more than 1000-fold selectivity over MOR) | < 1 | > 1000
CCc1cc(F)c2nc(N3CC[C@H](NC4CCOCC4)[C@H](F)C3)c(-c3ccn(C)n3)c(C)c2c1F [Compound 69] | +++ (between 100- to 1000-fold selective) | 10 to 100 | > 1000
CCc1cc(F)c2nc(N3CC[C@@H]4[C@@H](CCN4C[C@@H]4CCOC4)C3)c(-c3ccn(C)n3)c(C)c2c1 (stereo in doubt) [Compound 127] | +++ (between 100- to 1000-fold selective) | ≥ 100 | > 1000
CCc1cc(-c2ccn(C)n2)c2nc(N3CCC(N[C@@H]4CCOC4)CC3)c(-c3ccn(C)n3)c(C)c2c1 [Compound 100] | ++++ (more than 1000-fold selectivity over MOR) | < 1 | > 1000
CCc1cc(F)c2nc(N3CCN(C(=O)[C@H]4COCCN4C)C[C@H]3C)c(-c3nc(C)no3)c(C)c2c1 [Compound 184] | +++ (between 100- to 1000-fold selective) | 10 to 100 | > 1000
CCc1cc(F)c2nc(N3CCN(C[C@H]4CCCO4)C[C@H]3CC)c(-c3nc(C)no3)c(C)c2c1 [Compound 36] | ++ (between 10- and 100-fold selectivity) | 10 to 100 | > 1000
CCc1cc(F)c2nc(N3CCN(/C(=N/C#N)NC)C[C@H]3C)c(-c3nc(C)no3)c(C)c2c1 [Compound 55] | ++ (between 10- and 100-fold selectivity) | 10 to 100 | > 1000
CCc1cc(-c2ccnn2C)c2nc(N3CCC(N[C@@H]4CCOC[C@H]4F)CC3)c(-c3ccn(C)n3)c(C)c2c1 [Compound 22, 1-(6-ethyl-4-methyl-3-(1-methyl-1H-pyrazol-3-yl)-8-(1-methyl-1H-pyrazol-5-yl)quinolin-2-yl)-N-((3S,4R)-3-fluorotetrahydro-2H-pyran-4-yl)piperidin-4-amine] | ++ (between 10- and 100-fold selectivity) | 1 to 10 | 100 to 1000
CCc1cc(F)c2nc(N3CCC(N[C@@H]4CCOC[C@H]4F)CC3)c(-c3cc(C)n(C)n3)c(C)c2c1 [Compound 4, 1-(3-(1,5-dimethyl-1H-pyrazol-3-yl)-6-ethyl-8-fluoro-4-methylquinolin-2-yl)-N-((3S,4R)-3-fluorotetrahydro-2H-pyran-4-yl)piperidin-4-amine] | ++ (between 10- and 100-fold selectivity) | 10 to 100 | 100 to 1000
CCc1cc(F)c2nc(N3CC[C@@H](N[C@@H]4CCCOC4)C[C@H]3C)c(-c3ccn(C)n3)c(C)c2c1 [Compound 119] | ++++ (more than 1000-fold selectivity over MOR) | < 1 | 100 to 1000
CCc1cc(F)c2nc(N3CCN(C[C@@H]4CCCO4)C[C@H]3C)c(-c3nc(C)no3)c(C)c2c1 [Compound 29] | +++ (between 100- to 1000-fold selective) | 1 to 10 | > 1000
CCc1cc(F)c2nc(N3CCN(C(=O)[C@@H]4C[C@@H](O)CN4C)C[C@H]3C)c(-c3ccn(C)n3)c(C)c2c1 [Compound 177] | +++ (between 100- to 1000-fold selective) | ≥ 100 | > 1000
CCc1cc(F)c2nc(N3CCN(C(=O)[C@H]4CC(F)(F)CCN4C)C[C@H]3C)c(-c3nc(C)no3)c(C)c2c1 [Compound 205, ((R)-4,4-difluoro-1-methylpiperidin-2-yl)((R)-4-(6-ethyl-8-fluoro-4-methyl-3-(3-methyl-1,2,4-oxadiazol-5-yl)quinolin-2-yl)-3-methylpiperazin-1-yl)methanone] | +++ (between 100- to 1000-fold selective) | 1 to 10 | > 1000
